Reference: PMC7286914 (2020)

Tests used:
Experiment in all cases: Cy3/quencher fluorescence titration, Langmuir fit
[1] = system: Combined TAT80/A-C Mismatch (DNA, aptamer) CACCTGGGGGAGTATTGCGGAGGAAGGTTTTGAAGAAAAAGATTGCTCTTTTTCTTATTGTTTCTTTTTCTATTTACCCCCAAGTG; settings: 6 mM MgCl2; Na+ (concentration not stated); 10 mM Tris, 10 mM Bis-Tris, 10 mM sodium acetate, pH 6.5, room temperature; apparent, intramolecular displacement strand competes
[2] = system: A-G Mismatch (DNA, aptamer) CACCTGGGGGAGTATTGCGGAGGAAGGTTTTTTTTTTTTTTTCCCAAGGTG; settings: 6 mM MgCl2; Na+ (concentration not stated); 10 mM Tris, 10 mM Bis-Tris, 10 mM sodium acetate, pH 7.5, room temperature; apparent, intramolecular displacement strand competes
[3] = system: TAT60 (DNA, aptamer) CACCTGGGGGAGTATTGCGGAGGAAGGTTTTGAGGGAAAGAATCATTTCTTTCCCTATGTTTCCCTTTCTTTTTAACCAGGTG; settings: 6 mM MgCl2; Na+ (concentration not stated); 10 mM Tris, 10 mM Bis-Tris, 10 mM sodium acetate, pH 7, room temperature; apparent, intramolecular displacement strand competes
[4] = system: A-C Mismatch (DNA, aptamer) CACCTGGGGGAGTATTGCGGAGGAAGGTTTTTTTTTTTTTACCCCCAAGTG; settings: 6 mM MgCl2; Na+ (concentration not stated); 10 mM Tris, 10 mM Bis-Tris, 10 mM sodium acetate, pH 8, room temperature; apparent, intramolecular displacement strand competes

KDeff [1]: 32 (95% CI 27–39) μM
KDeff [2]: 0.32 (95% CI 0.27–0.37) mM
KDeff [3]: 3.9 (95% CI 3.2–4.8) mM
KDeff [4]: 0.30 (95% CI 0.25–0.36) mM
Structure (SMILES): Nc1ncnc2c1ncn2[C@@H]1O[C@H](COP(=O)(O)OP(=O)(O)OP(=O)(O)O)[C@@H](O)[C@H]1O
